This is an account of results in patent US7776558B2, “Human G protein-coupled receptor and modulators thereof for the treatment of cell death-related disorders” (Arena Pharmaceuticals, Inc., priority 2003, dated 2010).

“Also recorded” adds a separate entry of the source. Where no end group is shown, it is not given here.

For assay [1], the system named is serum-deprived differentiated SH-SY5Y cells. Nature of the assay: Cell death of serum-deprived differentiated SH-SY5Y cells. The note with it: serum-free medium 6 days; LDH assay (panel A) or Trypan Blue staining (panel B); FIG. 10. Format: cell-based, human. The procedure:
Briefly, SH-SY5Y cells were differentiated into neuronal-like cells by treatment with retinoic acid (10 μM) for five days followed by treatment with BDNF (10 ng/ml) for two days. […] Cell viability was determined by lactate dehydrogenase (LDH) assay (Roche, Indianapolis, Ind.; catalog no. 1644793) or by trypan blue staining. LDH is a stable cytoplasmic enzyme present in all cells which is rapidly released upon damage to the plasma membrane. The level of LDH is inversely proportional to the number of viable cells. The LDH assay was carried out as per manufacturer's instructions.

The subject of assay [2] is differentiated SH-SY5Y cells. Put plainly: Aβ-induced cell death of differentiated SH-SY5Y cells. Type of assay: cell-based, human. The note with it: AB1-42 80 μg/ml; Humanin 1 μM; Compound 1 20 μM, 5 μM or 1 μM; Trypan Blue staining; FIG. 12. The procedure:
SH-SY5Y is a human neuroblastoma cell line. Differentiation of SH-SY5Y into neuronal-like cells was carried out by treatment with retinoic acid (10 μM) for five days followed by treatment with BDNF (10 ng/ml) for two days. Aβ (AB1-42) was purchased from Biosource International (Camarillo, Calif.; catalog no. 03-111).
The assay was carried out in serum-free medium. AB1-42 was used at 80 μg/ml. […] Compound 1 was used at either 20 μM, 5 μM or 1 μM.
Cell survival was determined by Trypan Blue staining.

In assay [3] the target is T1, FPR (Homo sapiens, UniProt P21462).
T1 sequence (P21462 1-350): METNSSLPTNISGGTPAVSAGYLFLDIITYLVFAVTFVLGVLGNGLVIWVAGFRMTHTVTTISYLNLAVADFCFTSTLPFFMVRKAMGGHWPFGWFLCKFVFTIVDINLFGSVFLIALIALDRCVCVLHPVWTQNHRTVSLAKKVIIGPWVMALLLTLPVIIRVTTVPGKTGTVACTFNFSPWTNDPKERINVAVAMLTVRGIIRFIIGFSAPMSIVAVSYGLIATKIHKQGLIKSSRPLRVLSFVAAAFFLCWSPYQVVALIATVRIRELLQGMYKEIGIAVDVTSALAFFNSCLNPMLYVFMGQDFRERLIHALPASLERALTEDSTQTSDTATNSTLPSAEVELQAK
Nature of the assay: IP3 assay, HEK293 cells transiently transfected with FPR (negative control). Format: cell-based. Details: Full-Length Cloning of Human GPCRs; expressed in transfected cells; host or cells: HEK293 cells, transient. The note with it: not shown.

Assay [4] has as its target T2, FPRL1 (Homo sapiens, UniProt P25090).
T2 sequence (P25090 1-351): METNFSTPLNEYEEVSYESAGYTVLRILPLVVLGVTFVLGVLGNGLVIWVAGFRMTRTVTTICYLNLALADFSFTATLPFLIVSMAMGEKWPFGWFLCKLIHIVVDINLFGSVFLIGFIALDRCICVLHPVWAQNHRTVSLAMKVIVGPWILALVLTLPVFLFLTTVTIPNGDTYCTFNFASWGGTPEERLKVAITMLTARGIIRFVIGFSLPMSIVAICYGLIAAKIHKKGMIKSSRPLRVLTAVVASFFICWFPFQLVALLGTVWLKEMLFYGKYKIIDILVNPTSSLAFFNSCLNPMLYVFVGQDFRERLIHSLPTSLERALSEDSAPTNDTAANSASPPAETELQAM
Put plainly: Whole cell adenylate cyclase (cAMP) assay, stably transfected HEK293 cells. Format: cell-based. The note with it: in the presence of 5 μM forskolin, FIG. 6. The text has this:
A Flash Plate™ Adenylyl Cyclase kit (New England Nuclear; Cat. No. SMP004A) designed for cell-based assays can be modified for use with crude plasma membranes. The Flash Plate wells can contain a scintillant coating which also contains a specific antibody recognizing cAMP. The cAMP generated in the wells can be quantitated by a direct competition for binding of radioactive cAMP tracer to the cAMP antibody. The following serves as a brief protocol for the measurement of changes in cAMP levels in whole cells that express the receptors.
Transfected cells are harvested approximately twenty four hours after transient transfection. Media is carefully aspirated off and discarded. 10 ml of PBS is gently added to each dish of cells followed by careful aspiration. 1 ml of Sigma cell dissociation buffer and 3 ml of PBS are added to each plate. Cells are pipetted off the plate and the cell suspension is collected into a 50 ml conical centrifuge tube. Cells are then centrifuged at room temperature at 1,100 rpm for 5 min. The cell pellet is carefully re-suspended into an appropriate volume of PBS (about 3 ml/plate). The cells are then counted using a hemocytometer and additional PBS is added to give the appropriate number of cells (with a final volume of about 50 μl/well). […]
In FIG. 6, agonist activity was determined through adenylate cyclase activity. […] Samples were then assessed for the level of intracellular cAMP as described in Example 4, supra.

The conditions of assay [5]: mice; Mamiya & Ukai 2001; cited from earlier work.
The test system of assay [6] is human cerebrovascular smooth muscle cells. The note with it: cited from earlier work.
In assay [7] the target is T2, FPRL1. Put plainly: [35S]GTPγS binding assay, membranes of transiently transfected CHO cells. Type of assay: biochemical. Details: Full-Length Cloning of Human GPCRs; expressed in transfected cells; host or cells: CHO-K1 cells, transient, pCMV; plasma membranes. The note with it: FIG. 3 panel B, read-out: EC50 at FPRL1, promoted [35S]GTPγS binding. Background: Binding of GTPγS marks nucleotide exchange on a G protein.

As for `CC(C)c1ccc2c(c1)CCC1C(C)(C(N)=O)CCCC21C` (stereo not drawn) [Compound 1, 7-Isopropyl-1,4a-dimethyl-1,2,3,4,4a,9,10,10a-octahydro-phenanthrene-1-carboxylic acid amide], the “Inhibition of cell death of serum-deprived SH-SY5Y cells” value in assay [1] is “inhibit cell death”. The “Protection from Aβ-induced cell death” value in assay [2] is “protect differentiated SH-SY5Y cells from Aβ-induced cell death”. In addition, the “IP3 response in HEK293 cells transiently transfected with FPR” value in assay [3] is given as “no IP3 response”.
Turning to `CC[C@H](C)[C@H](NC(=O)[C@H](CCC(=O)O)NC(=O)[C@H](CO)NC(=O)[C@@H](NC(=O)[C@H](CC(C)C)NC(=O)[C@H](CC(C)C)NC(=O)[C@H](CC(C)C)NC(=O)[C@H](CC(C)C)NC(=O)[C@H](CS)NC(=O)[C@H](CO)NC(=O)[C@H](Cc1ccccc1)NC(=O)CNC(=O)[C@H](CCCNC(=N)N)NC(=O)[C@@H]1CCCN1C(=O)[C@H](C)NC(=O)[C@@H](N)CCSC)[C@@H](C)O)C(=O)N[C@@H](CC(=O)O)C(=O)N[C@@H](CC(C)C)C(=O)N1CCC[C@H]1C(=O)N[C@H](C(=O)N[C@@H](CCCCN)C(=O)N[C@@H](CCCNC(=N)N)C(=O)N[C@@H](CCCNC(=N)N)C(=O)N[C@@H](C)C(=O)O)C(C)C` [Humanin], the “Agonist activity at FPRL1, intracellular cAMP” value in assay [4] was “agonists of both FPRL1 and FPRL2”; in assay [4] (listed as Human), “agonists of both FPRL2 and FPRL1”. Besides, the “Inhibition of cell death of serum-deprived SH-SY5Y cells” value in assay [1] was “inhibit cell death”. For the same molecule, the “Protection from Aβ-induced cell death” value in assay [2] is listed as “protect differentiated SH-SY5Y cells from Aβ-induced cell death”. In addition, the “Learning and memory impairment” value in assay [5] was “improve learning and memory impairment in mice”. Besides, the “Rescue from Aβ-induced toxicity” value in assay [6] is recorded as “rescues human cerebrovascular smooth muscle cells from Aβ-induced toxicity”. The “IP3 response in HEK293 cells transiently transfected with FPR” value in assay [3] was “no IP3 response”.
Broadly, the EC50 is the midpoint of the concentration-response curve. For the molecule “MAPRGFSCLLLLTGEIDLPVKRRA [[Gly14]-Humanin]”, the “Agonist activity at FPRL1, intracellular cAMP” value in assay [4] is “agonists of both FPRL1 and FPRL2; also recorded: agonists of both FPRL2 and FPRL1”. In addition, in assay [7], the half-maximal effective concentration (EC50) was roughly 1500 nM.
